Some test systems named below: HL-60(TB) leukemia; NCI-H23 lung; IGROV1 ovarian; OVCAR-8 ovarian; LOX IMVI melanoma; RXF 393 renal; MDA-MB-231 breast; U251 CNS.
Holding throughout (assay): NCI tumour cell line growth inhibition, 48 h

This note sets out measurements from PubChem BioAssay (NCI).

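Interpolation was linear, between the two tested concentrations surrounding the appropriate level; five concentrations were tested over 48 hours in 96-well plates. GI50 = concentration required for 50% inhibition of growth. Definition used: TGI = concentration required for complete inhibition of growth.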

On to `C/C(=N/S(=O)(=O)c1ccc(Cl)c(Cl)c1)OCC(C)(C)C`, for which the TGI in the assay with HL-60(TB) leukemia, in the assay with NCI-H23 lung, with IGROV1 ovarian, in the assay with OVCAR-8 ovarian, in the assay on LOX IMVI melanoma and in the assay on RXF 393 renal was greater than 100 µM throughout. Also, the TGI with MDA-MB-231 breast and in the assay on U251 CNS was greater than 100 µM each time.

As to `COc1ccc(/C=C/C(=O)c2cc3c(N)c(C(=O)Nc4ccccc4Cl)sc3nc2C)cc1`, the GI50 in the assay with HL-60(TB) leukemia is 1.74 µM; with NCI-H23 lung it was 4.58 µM; with IGROV1 ovarian, 2.72 µM; in the assay with OVCAR-8 ovarian, 2.04 µM; in the assay with LOX IMVI melanoma it was 8.11 µM; in the assay on RXF 393 renal it was 0.846 µM. Moreover, the GI50 in the assay on MDA-MB-231 breast is 2.22 µM; in the assay on U251 CNS, 3.36 µM. The TGI is greater than 50 µM with HL-60(TB) leukemia; greater than 50 µM with NCI-H23 lung; greater than 50 µM in the assay with IGROV1 ovarian; 11 µM with OVCAR-8 ovarian; greater than 50 µM with LOX IMVI melanoma; 3.6 µM with RXF 393 renal. The TGI in the assay on MDA-MB-231 breast is 20.3 µM; with U251 CNS, 29.6 µM.

`Nc1ccccc1C#C/C=C\C#Cc1ccccc1C(F)(F)F`: the GI50 with HL-60(TB) leukemia was 1.04 µM; in the assay with NCI-H23 lung, 0.397 µM; with IGROV1 ovarian, 1.34 µM; in the assay on OVCAR-8 ovarian it was 1.32 µM; with LOX IMVI melanoma, 0.441 µM; with RXF 393 renal, 1.1 µM. Besides, the results for the GI50 in the assay with MDA-MB-231 breast and with U251 CNS were 0.274 µM and 0.621 µM, respectively. Further, the TGI was greater than 27.7 µM with HL-60(TB) leukemia; 5.17 µM with NCI-H23 lung; greater than 55.8 µM in the assay on IGROV1 ovarian; 20.6 µM in the assay on OVCAR-8 ovarian; 11.5 µM in the assay with LOX IMVI melanoma; 9.98 µM in the assay with RXF 393 renal. The TGI amounted to 2.73 µM in the assay with MDA-MB-231 breast and 15.7 µM in the assay with U251 CNS.

With `O=C1CCC(Cc2ccc(Cl)cc2Cl)C(=O)N1` (stereo not given), the TGI in the assay with HL-60(TB) leukemia, in the assay with NCI-H23 lung, in the assay with IGROV1 ovarian, in the assay with OVCAR-8 ovarian, in the assay with LOX IMVI melanoma and with RXF 393 renal was greater than 100 µM in each case. Also, the TGI with MDA-MB-231 breast and in the assay with U251 CNS was greater than 100 µM each time.

`Cc1cn(C2CC(F)C(CO)O2)c(=O)[nH]c1=O` (stereo not given): the GI50 in the assay with HL-60(TB) leukemia, with NCI-H23 lung, in the assay with IGROV1 ovarian, in the assay on OVCAR-8 ovarian, in the assay on LOX IMVI melanoma and in the assay with RXF 393 renal was greater than 100 µM throughout. Moreover, the GI50 with MDA-MB-231 breast is greater than 100 µM. Further, the TGI in the assay with HL-60(TB) leukemia, in the assay on NCI-H23 lung, with IGROV1 ovarian, with OVCAR-8 ovarian, with LOX IMVI melanoma and in the assay with RXF 393 renal was greater than 100 µM in each case. The TGI with MDA-MB-231 breast is greater than 100 µM.

Consider `Oc1ccc(/C=N\Nc2ccccn2)c(O)c1`, for which the GI50 is 0.243 µM in the assay with HL-60(TB) leukemia; 0.783 µM in the assay on NCI-H23 lung; 0.638 µM in the assay with IGROV1 ovarian; 0.645 µM in the assay on OVCAR-8 ovarian; 1.96 µM with LOX IMVI melanoma; 2.24 µM with RXF 393 renal. Further, the GI50 with U251 CNS is 0.773 µM. The TGI was 0.783 µM with HL-60(TB) leukemia; greater than 100 µM in the assay with NCI-H23 lung; 3.64 µM in the assay on IGROV1 ovarian; greater than 100 µM in the assay with OVCAR-8 ovarian; greater than 100 µM with LOX IMVI melanoma; 53.4 µM with RXF 393 renal. Moreover, in the assay on U251 CNS, the TGI is greater than 100 µM.

`O=C(O)c1ccc2c(c1)Cc1cc([N+](=O)[O-])ccc1-2`: the TGI in the assay on HL-60(TB) leukemia, in the assay on NCI-H23 lung, in the assay with IGROV1 ovarian, in the assay on OVCAR-8 ovarian, in the assay with LOX IMVI melanoma and with MDA-MB-231 breast was greater than 100 µM in each case. The TGI in the assay on U251 CNS is greater than 100 µM.

`CCCC1c2c(ccc3ccccc23)Oc2ccc3ccccc3c21`: the TGI with NCI-H23 lung, with IGROV1 ovarian, in the assay with OVCAR-8 ovarian, with LOX IMVI melanoma, in the assay with RXF 393 renal and in the assay on MDA-MB-231 breast was greater than 100 µM each time. The TGI in the assay with U251 CNS is greater than 100 µM.

`OCCCCC#Cc1ccccc1C#Cc1ccccc1`: the GI50 was 19.8 µM in the assay with NCI-H23 lung; 30.9 µM in the assay on IGROV1 ovarian; 24.5 µM in the assay on OVCAR-8 ovarian; 4.29 µM in the assay on MDA-MB-231 breast; 11.5 µM with U251 CNS. Further, the TGI is 51.4 µM in the assay on NCI-H23 lung; greater than 100 µM with IGROV1 ovarian; 59.5 µM in the assay on OVCAR-8 ovarian; 14.1 µM in the assay with MDA-MB-231 breast; 23.8 µM in the assay with U251 CNS.

As for `O=Cc1c(-c2cc(O)ccc2O)nc2sccn12`, the GI50 was 20.9 µM in the assay on NCI-H23 lung; 9.04 µM with IGROV1 ovarian; 21.4 µM with OVCAR-8 ovarian; 8.94 µM with LOX IMVI melanoma; 7.83 µM in the assay on RXF 393 renal; 12 µM in the assay on MDA-MB-231 breast. In the assay with U251 CNS, the GI50 is 18.8 µM. For the same molecule, the TGI in the assay with NCI-H23 lung is 51.4 µM; with IGROV1 ovarian, 29.5 µM; in the assay with OVCAR-8 ovarian, greater than 100 µM; in the assay on LOX IMVI melanoma it was 33.5 µM; in the assay with RXF 393 renal, 26.6 µM; in the assay with MDA-MB-231 breast, 31.4 µM. In the assay on U251 CNS, this molecule displayed a TGI of 47 µM.

Consider `O=c1c2ccccc2c2ccccc2c(=O)n1-c1cc2c3ccccc3ccc2c2ccccc12`, for which the TGI with NCI-H23 lung, with IGROV1 ovarian, in the assay with OVCAR-8 ovarian, with LOX IMVI melanoma, with RXF 393 renal and in the assay with MDA-MB-231 breast was greater than 100 µM each time. Further, the TGI in the assay on U251 CNS was greater than 100 µM.

Take `COCCn1cc(-c2csc(-c3c[nH]c4ccccc34)n2)c2cccnc21`: the GI50 in the assay with NCI-H23 lung was 4.58 µM; in the assay with IGROV1 ovarian it was 2.53 µM; in the assay with OVCAR-8 ovarian, 8 µM; with LOX IMVI melanoma it was 3.96 µM; in the assay on RXF 393 renal, 5.76 µM; in the assay on MDA-MB-231 breast it was 5.05 µM. The GI50 in the assay on U251 CNS is 6.12 µM. For the same molecule, the TGI in the assay with NCI-H23 lung was greater than 100 µM; with IGROV1 ovarian, greater than 100 µM; with OVCAR-8 ovarian, greater than 100 µM; in the assay on LOX IMVI melanoma, greater than 100 µM; in the assay on RXF 393 renal it was 64.3 µM; in the assay on MDA-MB-231 breast, greater than 100 µM. The molecule further showed a TGI in the assay on U251 CNS greater than 100 µM.
